The subject of one data set is viable cells in culture. The data set is described as follows: Cell viability assay at 10 μM (CellTiter-Glo, Table VII).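 Further: graded A 0-20%; B 21-40%; C 41-60%; D over 60% viable cells relative to DMSO control.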 It is filed as cell-based. The conditions noted are these: compound 10 μM, 72 h. As for the experimental part:
(§1) The CellTiter-Glo® Luminescent Cell Viability Assay (Promega Corporation. Madison, Wis., USA) is method a determining the number of viable cells in culture based on quantification of the ATP being present which is an indicator of metabolically active cells was used according to manufacturers protocol. In detail the assay was performed in a 96 well format were 1000 cells/well were incubated with compound at concentration 10 μM as well as DMSO control for 72 h in 100 μl cell culture medium. Percentage of inhibition was calculated compared to ATP amount of DMSO control.
In general terms: In ATP-based viability assays light output follows the ATP content of the culture.

The subject of data set [1] is Hs578T. The data set is described as follows: Cell vitality assay (ATP assay, CellTiter-Glo). It is filed as cell-based. To be noted: Homo sapiens, Hs-578T; HS578T cell line, 72 h; Table Ib; read-out: IC50 ATP-Assay HS578T after 72 h. As for the experimental part: as §1, with “manufacturers protocol,” for “manufacturers protocol.”, “with indicated” for “with”, “concentration of 12.5 μM, 6.25 μM, 3.125 μM, 1.56 μM, 0.78 μM, 0.39 μM, 0.195” for “concentration 10”, “medium. IC50 values were calculated as 50%” for “medium. Percentage”, “of ATP amount” for “of inhibition was calculated”, “to” for “to ATP amount of”
Protocol for the CellTiter-Glo® Luminescent Cell Viability Assay • 1. Prepare opaque-walled multiwell plates with mammalian cells in culture medium, 100 μl per well for 96-well plates • 2. Prepare control wells containing medium without cells to obtain a value for background luminescence. • 3. Add the compound to be tested to experimental wells, and incubate according to culture protocol. • 4. Equilibrate the plate and its contents at room temperature for approximately 30 minutes. • 5. Add a volume of CellTiter-Glo® Reagent (Promega Corporation. Madison, Wis.) equal to the volume of cell culture medium present in each well. • 6. Mix contents for 2 minutes on an orbital shaker to induce cell lysis. • 7. Allow the plate to incubate at room temperature for 10 minutes to stabilize luminescent signal. • 8. Record luminescence on Microplate Luminometer LB96V (Berthold Tchnologies, Bad Wildbad, Germany). An integration time of 0.1 and 1 second per well

The subject of data set [2] is Hs578T. The data set is described as follows: Matrigel outgrowth assay/branching assay. The conditions noted are these: Homo sapiens, Hs-578T; HS578T cell line; Table Ib; read-out: Total branching inhibition in Matrigel HS578T. It counts as cell-based. As for the experimental part:
The Matrigel outgrowth assay is based on the ability of tumor cell to penetrate a solid gel of extracellular matrix proteins mimicking the metastasis formation in vivo. While cells with low invasive potential appear as roundish cell or cell cluster, cells with high invasive potential penetrate the Matrigel and form polymorphic structures. In detail 65 μl of Matrigel matrix (Matrigel™ Matrix, BD Biosciences, Bedford, Mass., USA) with a concentration of 3 mg/ml have been polymerized in 96 well plates for 1 h at 37° C. Subsequently 5000 cell/well were seeded into each well containing cell culture medium and indicated compound with concentrations of 3.125 μM, 1.56 μM and 0.78 μM as well as DMSO control. After 48 h, 72 h and 96 h images of cell were taken on an inverted microscope using a 5× objective (Zeiss Axiovert S100 microscope Carl Zeiss UK, Welwyn Garden City, UK). Only compound concentrations were total branching inhibition was evident were accounted as positive. Method was used as previously described, with some modifications (Thompson E W, et al. Association of increased basement membrane invasiveness with absence of estrogen receptor and expression of vimentin in human breast cancer cell lines. J Cell Physiol 1992; 150:534-44).

Data set [3] relates to Hs578T. The data set is described as follows: Wound healing migration assay. It is filed as cell-based. To be noted: Homo sapiens, Hs-578T; HS578T cell line; Table Ib. As for the experimental part: This method mimics cell migration during wound healing in vivo. The basic steps involve creating a “wound” in a cell monolayer, capturing the images at the beginning and at regular intervals during cell migration to close the wound, and comparing the images to quantify the migration rate of the cells. In detail, 150000 cell/24 well have been seeded and allowed to form a monolayer overnight. Subsequently a “wound” or “scratch” has been performed with a 1000 μl pipette tip. The STDV of wound size is normally below 10% at time point t0. The assay was stopped by fixation with 0.05% Crystal violet/20% methanol when control scratches were closed. The assay was terminated between 48 h and 72 h depending on the migration potential of the indicated cell line. The “wounds” were visualized with a Zeiss Axiovert S100 microscope (Carl Zeiss UK, Welwyn Garden City, UK). The tested compounds were used at 12.5 μM, 6.25, 3.125 μM and DMSO control. IC50 values have been calculated as 50% wound size in between t0 and t48 or t72.

This note sets out measurements from patent publication US9169241B2, “Quinolinyloxyphenylsulfonamides” (Max-Planck-Gesellschaft Zur Forderung der Wissenschaften …, priority 2009, dated 2015).

Where two headings read alike, the source gives them in different places.

Consider `COc1cc2c(Oc3ccc(NS(=O)(=O)c4ccc(F)c(Cl)c4)cc3F)ccnc2cc1OCCCN1CCN(C)CC1` [Example 23, 3-Chloro-4-fluoro-N-(3-fluoro-4-{6-methoxy-7-[3-(4-methyl-piperazin-1-yl)-propoxy]-quinolin-4-yloxy}-phenyl)-benzenesulfonamide], for which the melting point (commonly the temperature of the solid-liquid transition) lay within 108 to 110 °C. Moreover, the viability at 10 µM in the data set on viable cells in culture (Homo sapiens, HCT-116, HCT116 def, read-out: percentage (%) of viable cells HCT 116def) is 0 to 20%. Besides, the viability at 10 µM in the data set with viable cells in culture (Homo sapiens, HCT-116, HCT116 wt, read-out: percentage (%) of viable cells HCT 116wt) fell in the range of 0 to 20%. Also, in the data set with viable cells in culture (Homo sapiens, HT-29, HT29, read-out: percentage (%) of viable cells HT29), the viability at 10 µM fell in the range of 0 to 20%. Further, the viability at 10 µM in the data set with viable cells in culture (Homo sapiens, NCI-H358, H358, read-out: percentage (%) of viable cells H358) lay in the range of 0 to 20%. The viability at 10 µM with viable cells in culture (Homo sapiens, NCI-H1650, H1650, read-out: percentage (%) of viable cells H1650) was in the range of 21 to 40%. Further, in the data set with viable cells in culture (Homo sapiens, NCI-H1666, H1666, read-out: percentage (%) of viable cells H1666), the viability at 10 µM was 21 to 40%. Further, the viability at 10 µM in the data set with viable cells in culture (Homo sapiens, NCI-H1975, H1975, read-out: percentage (%) of viable cells H1975) fell in the range of 0 to 20%. For the same compound, the viability at 10 µM in the data set with viable cells in culture (Homo sapiens, NCI-H1993, H1993, read-out: percentage (%) of viable cells H1993) lay within 0 to 20%. In addition, the viability at 10 µM with viable cells in culture (Homo sapiens, A549, read-out: percentage (%) of viable cells A549) is 41 to 60%. Also, the viability at 10 µM in the data set with viable cells in culture (Homo sapiens, HCC827, read-out: percentage (%) of viable cells HCC827) is 21 to 40%. Besides, the viability at 10 µM with viable cells in culture (Homo sapiens, SW480, read-out: percentage (%) of viable cells SW480) lay in the range of 0 to 20%. In addition, in the data set on viable cells in culture (RKO, read-out: percentage (%) of viable cells RKO), the viability at 10 µM is 0 to 20%.

Compound `CCOC(=O)COc1cc2nccc(Oc3ccc(NS(=O)(=O)c4ccccc4F)cc3F)c2cc1OC` [Example 92, {4-[2-Fluoro-4-(2-fluoro-benzenesulfonylamino)-phenoxy]-6-methoxy-quinolin-7-yloxy}-acetic acid ethyl ester] displayed a melting point of 87 to 89 °C. In addition, the IC50 in the data set with Hs578T [1] was ≤ 12.5 µM. Moreover, the IC50 in the data set with Hs578T [2] lay in the range of 10 to 25 µM. The IC50 in the data set with Hs578T [3] lay in the range of 12.5 to 50 µM.

For the compound `COc1cc2c(Oc3ccc(NS(=O)(=O)c4ccccc4C(F)(F)F)cc3F)ccnc2cc1OCCCNC(=O)OC(C)(C)C` [Example 120, (3-{4-[2-Fluoro-4-(2-trifluoromethyl-benzenesulfonylamino)-phenoxy]-6-methoxy-quinolin-7-yloxy}-propyl)-carbamic acid tert-butyl ester], the melting point fell in the range of 80 to 82 °C. Besides, the IC50 in the data set with Hs578T [1] was 12.5 to 50 µM. Moreover, the IC50 in the data set with Hs578T [2] lay within 10 to 25 µM. The same compound had an IC50 in the data set on Hs578T [3] of 12.5 to 50 µM.

Consider `COc1cc2c(Oc3ccc(NS(=O)(=O)c4cc(F)ccc4F)cc3F)ccnc2cc1OCCCNC(=O)OC(C)(C)C` [Example 121, (3-{4-[4-(2,5-Difluoro-benzenesulfonylamino)-2-fluoro-phenoxy]-6-methoxy-quinolin-7-yloxy}-propyl)-carbamic acid tert-butyl ester], for which the melting point is 115 to 118 °C. Moreover, the IC50 in the data set with Hs578T [1] lay in the range of 12.5 to 50 µM. Moreover, the IC50 in the data set on Hs578T [2] fell in the range of 10 to 25 µM. This compound yielded an IC50 in the data set on Hs578T [3] of 12.5 to 50 µM.

Compound `COc1cc2c(Oc3cccc(NS(=O)(=O)c4c(F)cccc4F)c3)ccnc2cc1OCCCN1CCN(C)CC1` [Example 125, 2,6-Difluoro-N-(3-{6-methoxy-7-[3-(4-methyl-piperazin-1-yl)-propoxy]-quinolin-4-yloxy}-phenyl)-benzenesulfonamide] showed a melting point of 171 to 172 °C. Moreover, the IC50 in the data set on Hs578T [1] was ≤ 12.5 µM. For the same compound, the IC50 with Hs578T [2] was 10 to 25 µM. Further, the IC50 in the data set with Hs578T [3] is ≤ 12.5 µM.

In turn, `COc1cc2c(Oc3cccc(NS(=O)(=O)c4ccccc4OC(F)(F)F)c3)ccnc2cc1OCCCN1CCN(C)CC1` [Example 126, N-(3-{6-Methoxy-7-[3-(4-methyl-piperazin-1-yl)-propoxy]-quinolin-4-yloxy}-phenyl)-2-trifluoromethoxy-benzenesulfonamide] had a melting point of 164 to 166 °C. In addition, in the data set with Hs578T [1], the IC50 was ≤ 12.5 µM. In addition, in the data set with Hs578T [2], the IC50 is 10 to 25 µM. Also, the IC50 in the data set with Hs578T [3] was ≤ 12.5 µM.

Consider `COc1cc2c(Oc3cccc(NS(=O)(=O)c4cccs4)c3)ccnc2cc1OCCCN1CCN(C)CC1` [Example 129, Thiophene-2-sulfonic acid (3-{6-methoxy-7-[3-(4-methyl-piperazin-1-yl)-propoxy]-quinolin-4-yloxy}-phenyl)-amide], for which the melting point lay in the range of 188 to 189 °C. Also, the IC50 with Hs578T [1] is ≤ 12.5 µM. For the same compound, the IC50 in the data set with Hs578T [2] is ≤ 10 µM. Also, the IC50 with Hs578T [3] is ≤ 12.5 µM.

The compound `COc1cc2c(Oc3cccc(NS(=O)(=O)c4ccc(Cl)s4)c3)ccnc2cc1OCCCN1CCN(C)CC1` [Example 130, 5-Chloro-thiophene-2-sulfonic acid (3-{6-methoxy-7-[3-(4-methyl-piperazin-1-yl)-propoxy]-quinolin-4-yloxy}-phenyl)-amide] registered a melting point of 162 to 163 °C. In addition, the IC50 in the data set on Hs578T [1] is ≤ 12.5 µM. The IC50 in the data set on Hs578T [2] is ≤ 10 µM. In the data set with Hs578T [3], the IC50 fell in the range of 12.5 to 50 µM.

Regarding `COc1cc2c(Oc3cccc(NS(=O)(=O)c4ccc(C)s4)c3)ccnc2cc1OCCCN1CCN(C)CC1` [Example 131, 5-Methyl-thiophene-2-sulfonic acid (3-{6-methoxy-7-[3-(4-methyl-piperazin-1-yl)-propoxy]-quinolin-4-yloxy}-phenyl)-amide], the melting point was 147 to 149 °C. For the same compound, in the data set on Hs578T [1], the IC50 is ≤ 12.5 µM. In addition, in the data set on Hs578T [2], the IC50 was in the range of 10 to 25 µM. This compound also displayed an IC50 in the data set on Hs578T [3] of 12.5 to 50 µM.

`COc1cc2c(Oc3cccc(NS(=O)(=O)c4sc(NC(C)=O)nc4C)c3)ccnc2cc1OCCCN1CCN(C)CC1` [Example 132, N-[5-(3-{6-Methoxy-7-[3-(4-methyl-piperazin-1-yl)-propoxy]-quinolin-4-yloxy}-phenylsulfamoyl)-4-methyl-thiazol-2-yl]-acetamide] gave a melting point of 148 to 150 °C. Moreover, the IC50 with Hs578T [1] lay within 12.5 to 50 µM. Moreover, the IC50 with Hs578T [2] was in the range of 10 to 25 µM. This compound also showed an IC50 in the data set with Hs578T [3] of 12.5 to 50 µM.

Regarding `COc1cc2c(Oc3ccc(NS(=O)(=O)c4cnc(C)[nH]4)cc3F)ccnc2cc1OCCCN1CCOCC1` [Example 169, 2-Methyl-3H-imidazole-4-sulfonic acid {3-fluoro-4-[6-methoxy-7-(3-morpholin-4-yl-propoxy)-quinolin-4-yloxy]-phenyl}-amide], the IC50 in the data set with Hs578T [1] was 12.5 to 50 µM; in the data set on Hs578T [2] it was 10 to 25 µM; in the data set on Hs578T [3], 12.5 to 50 µM.

On to `COc1cc2c(Oc3cc(NS(=O)(=O)c4cc(F)ccc4F)ccc3F)ccnc2cc1OCCCN1CCC(C)CC1` [Example 187, 2,5-Difluoro-N-(4-fluoro-3-{6-methoxy-7-[3-(4-methyl-piperidin-1-yl)-propoxy]-quinolin-4-yloxy}-phenyl)-benzenesulfonamide], for which the values for the IC50 in the data set on Hs578T [1], with Hs578T [2] and in the data set on Hs578T [3] were ≤ 12.5 µM, ≤ 10 µM and ≤ 12.5 µM, respectively.
